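Five compound concentrations were applied to cells in 96-well plates for 48 hours; endpoints were derived by simple linear interpolation of the resulting dose-response curve. At the TGI there is no net growth.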
Key:
Assay in all cases: DTP human tumour cell line panel, 48 h
786-0 renal = tested on: 786-0 renal
A549 NSCLC = tested on: A549 NSCLC
ACHN renal = tested on: ACHN renal
BT-549 breast = tested on: BT-549 breast
CAKI-1 renal = tested on: CAKI-1 renal
CCRF-CEM leukemia = tested on: CCRF-CEM leukemia
COLO 205 colon = tested on: COLO 205 colon
DU-145 prostate = tested on: DU-145 prostate
HCC-2998 colon = tested on: HCC-2998 colon
HCT-116 colon = tested on: HCT-116 colon
HCT-15 colon = tested on: HCT-15 colon
HL-60(TB) leukemia = tested on: HL-60(TB) leukemia
HOP-62 NSCLC = tested on: HOP-62 NSCLC
HOP-92 NSCLC = tested on: HOP-92 NSCLC
HS 578T breast = tested on: HS 578T breast
HT29 colon = tested on: HT29 colon
IGROV1 ovarian = tested on: IGROV1 ovarian
K-562 leukemia = tested on: K-562 leukemia
KM12 colon = tested on: KM12 colon
LOX IMVI melanoma = tested on: LOX IMVI melanoma
M14 melanoma = tested on: M14 melanoma
MALME-3M melanoma = tested on: MALME-3M melanoma
MCF7 breast = tested on: MCF7 breast
MDA-MB-435 = tested on: MDA-MB-435
MDA-N = tested on: MDA-N
MOLT-4 leukemia = tested on: MOLT-4 leukemia
NCI-H23 lung = tested on: NCI-H23 lung
NCI-H460 lung = tested on: NCI-H460 lung
NCI/ADR-RES ovarian = tested on: NCI/ADR-RES ovarian
OVCAR-3 ovarian = tested on: OVCAR-3 ovarian
OVCAR-4 ovarian = tested on: OVCAR-4 ovarian
OVCAR-5 ovarian = tested on: OVCAR-5 ovarian
PC-3 prostate = tested on: PC-3 prostate
RPMI-8226 leukemia = tested on: RPMI-8226 leukemia
RXF 393 renal = tested on: RXF 393 renal
SF-268 CNS = tested on: SF-268 CNS
SF-295 CNS = tested on: SF-295 CNS
SF-539 CNS = tested on: SF-539 CNS
SK-MEL-2 melanoma = tested on: SK-MEL-2 melanoma
SK-MEL-28 melanoma = tested on: SK-MEL-28 melanoma
SK-MEL-5 melanoma = tested on: SK-MEL-5 melanoma
SK-OV-3 ovarian = tested on: SK-OV-3 ovarian
SN12C renal = tested on: SN12C renal
SNB-19 CNS = tested on: SNB-19 CNS
SNB-75 CNS = tested on: SNB-75 CNS
SR leukemia = tested on: SR leukemia
SW-620 colon = tested on: SW-620 colon
T-47D breast = tested on: T-47D breast
UACC-257 melanoma = tested on: UACC-257 melanoma
UACC-62 melanoma = tested on: UACC-62 melanoma
UO-31 renal = tested on: UO-31 renal
A498 renal = tested on: A498 renal
EKVX NSCLC = tested on: EKVX NSCLC
NCI-H226 lung = tested on: NCI-H226 lung
OVCAR-8 ovarian = tested on: OVCAR-8 ovarian
TK-10 renal = tested on: TK-10 renal
U251 CNS = tested on: U251 CNS

How did the TGI (786-0 renal) turn out when [N-]=[N+]=Nc1c(Cl)c(=O)n(-c2ccccc2)c2ccccc12 was run?
The TGI was 38.6 µM.

And the TGI (A549 NSCLC)?
Its TGI is over 100 µM.

And the TGI (ACHN renal)?
Its TGI is 49.2 µM.

What about the TGI (BT-549 breast) of the same compound?
The TGI was 39.2 µM.

What about the TGI (CAKI-1 renal) of the same compound?
Its TGI is 50.5 µM.

What about the TGI (CCRF-CEM leukemia) of the same compound?
Its TGI is 56.6 µM.

And the TGI (COLO 205 colon)?
The TGI was 47.1 µM.

What about the TGI (DU-145 prostate) of the same compound?
Its TGI is over 100 µM.

What about the TGI (HCC-2998 colon) of the same compound?
Its TGI is 42.7 µM.

What about the TGI (HCT-116 colon) of the same compound?
Its TGI is 33.4 µM.

And the TGI (HCT-15 colon)?
The TGI was 43.7 µM.

And the TGI (HL-60(TB) leukemia)?
Its TGI is over 100 µM.

And the TGI (HOP-62 NSCLC)?
Its TGI is 58.6 µM.

And the TGI (HOP-92 NSCLC)?
Its TGI is 38.3 µM.

What about the TGI (HS 578T breast) of the same compound?
Its TGI is 76.9 µM.

And the TGI (HT29 colon)?
Its TGI is 59.3 µM.

What about the TGI (IGROV1 ovarian) of the same compound?
Its TGI is 30.5 µM.

What about the TGI (K-562 leukemia) of the same compound?
The TGI was 49 µM.

What about the TGI (KM12 colon) of the same compound?
Its TGI is over 100 µM.

And the TGI (LOX IMVI melanoma)?
Its TGI is 29.5 µM.

And the TGI (M14 melanoma)?
The TGI was 36.3 µM.

And the TGI (MALME-3M melanoma)?
Its TGI is 43.9 µM.

What about the TGI (MCF7 breast) of the same compound?
The TGI was 38.7 µM.

And the TGI (MDA-MB-435)?
Its TGI is 35 µM.

And the TGI (MDA-N)?
Its TGI is 52.9 µM.

And the TGI (MOLT-4 leukemia)?
Its TGI is 38.4 µM.

What about the TGI (NCI-H23 lung) of the same compound?
The TGI was 36.7 µM.

What about the TGI (NCI-H460 lung) of the same compound?
The TGI was over 100 µM.

And the TGI (NCI/ADR-RES ovarian)?
The TGI was over 100 µM.

And the TGI (OVCAR-3 ovarian)?
Its TGI is 39 µM.

And the TGI (OVCAR-4 ovarian)?
Its TGI is 34.7 µM.

And the TGI (OVCAR-5 ovarian)?
The TGI was 42.4 µM.

What about the TGI (PC-3 prostate) of the same compound?
Its TGI is 70 µM.

And the TGI (RPMI-8226 leukemia)?
Its TGI is over 100 µM.

What about the TGI (RXF 393 renal) of the same compound?
The TGI was 30.1 µM.

What about the TGI (SF-268 CNS) of the same compound?
The TGI was 43.9 µM.

What about the TGI (SF-295 CNS) of the same compound?
Its TGI is over 100 µM.

What about the TGI (SF-539 CNS) of the same compound?
Its TGI is 42.3 µM.

And the TGI (SK-MEL-2 melanoma)?
Its TGI is 53.2 µM.

And the TGI (SK-MEL-28 melanoma)?
Its TGI is 32.1 µM.

What about the TGI (SK-MEL-5 melanoma) of the same compound?
The TGI was 18.5 µM.

And the TGI (SK-OV-3 ovarian)?
The TGI was over 100 µM.

What about the TGI (SN12C renal) of the same compound?
Its TGI is 51.2 µM.

And the TGI (SNB-19 CNS)?
The TGI was over 100 µM.

What about the TGI (SNB-75 CNS) of the same compound?
The TGI was 50.8 µM.

What about the TGI (SR leukemia) of the same compound?
The TGI was over 100 µM.

What about the TGI (SW-620 colon) of the same compound?
Its TGI is 31 µM.

What about the TGI (T-47D breast) of the same compound?
Its TGI is 28.9 µM.

And the TGI (UACC-257 melanoma)?
The TGI was 47.1 µM.

What about the TGI (UACC-62 melanoma) of the same compound?
The TGI was 29.4 µM.

What about the TGI (UO-31 renal) of the same compound?
Its TGI is 52.6 µM.

How did the TGI (786-0 renal) turn out when COc1cc(COC(=O)N[C@H](C(=O)O)C(C)(C)C)c([N+](=O)[O-])cc1OC was run?
Its TGI is over 100 µM.

What about the TGI (A498 renal) of the same compound?
The TGI was over 100 µM.

And the TGI (A549 NSCLC)?
Its TGI is over 100 µM.

What about the TGI (ACHN renal) of the same compound?
Its TGI is over 100 µM.

What about the TGI (BT-549 breast) of the same compound?
The TGI was over 100 µM.

And the TGI (CCRF-CEM leukemia)?
Its TGI is over 100 µM.

What about the TGI (COLO 205 colon) of the same compound?
The TGI was over 100 µM.

And the TGI (DU-145 prostate)?
Its TGI is over 100 µM.

And the TGI (EKVX NSCLC)?
The TGI was over 100 µM.

And the TGI (HCC-2998 colon)?
The TGI was over 100 µM.

And the TGI (HCT-116 colon)?
The TGI was over 100 µM.

What about the TGI (HCT-15 colon) of the same compound?
Its TGI is over 100 µM.

And the TGI (HOP-62 NSCLC)?
The TGI was over 100 µM.

And the TGI (HOP-92 NSCLC)?
Its TGI is over 100 µM.

And the TGI (HS 578T breast)?
Its TGI is over 100 µM.

What about the TGI (HT29 colon) of the same compound?
Its TGI is over 100 µM.

And the TGI (IGROV1 ovarian)?
The TGI was over 100 µM.

And the TGI (K-562 leukemia)?
The TGI was over 100 µM.

And the TGI (KM12 colon)?
The TGI was over 100 µM.

And the TGI (M14 melanoma)?
Its TGI is over 100 µM.

What about the TGI (MALME-3M melanoma) of the same compound?
Its TGI is over 100 µM.

What about the TGI (MCF7 breast) of the same compound?
The TGI was over 100 µM.

What about the TGI (MDA-MB-435) of the same compound?
The TGI was over 100 µM.

What about the TGI (MDA-N) of the same compound?
Its TGI is over 100 µM.

What about the TGI (MOLT-4 leukemia) of the same compound?
Its TGI is over 100 µM.

What about the TGI (NCI-H226 lung) of the same compound?
The TGI was over 100 µM.

And the TGI (NCI-H23 lung)?
The TGI was over 100 µM.

What about the TGI (NCI-H460 lung) of the same compound?
Its TGI is over 100 µM.

What about the TGI (NCI/ADR-RES ovarian) of the same compound?
Its TGI is over 100 µM.

And the TGI (OVCAR-3 ovarian)?
Its TGI is over 100 µM.

What about the TGI (OVCAR-5 ovarian) of the same compound?
Its TGI is over 100 µM.

And the TGI (OVCAR-8 ovarian)?
The TGI was over 100 µM.

What about the TGI (PC-3 prostate) of the same compound?
The TGI was over 100 µM.

What about the TGI (RPMI-8226 leukemia) of the same compound?
Its TGI is over 100 µM.

What about the TGI (RXF 393 renal) of the same compound?
The TGI was over 100 µM.

What about the TGI (SF-268 CNS) of the same compound?
Its TGI is over 100 µM.

And the TGI (SF-295 CNS)?
Its TGI is over 100 µM.

And the TGI (SF-539 CNS)?
The TGI was over 100 µM.

What about the TGI (SK-MEL-28 melanoma) of the same compound?
The TGI was over 100 µM.

What about the TGI (SK-MEL-5 melanoma) of the same compound?
The TGI was over 100 µM.

What about the TGI (SK-OV-3 ovarian) of the same compound?
Its TGI is over 100 µM.

What about the TGI (SN12C renal) of the same compound?
The TGI was over 100 µM.

What about the TGI (SNB-19 CNS) of the same compound?
Its TGI is over 100 µM.

What about the TGI (SNB-75 CNS) of the same compound?
The TGI was over 100 µM.

What about the TGI (SR leukemia) of the same compound?
Its TGI is over 100 µM.

And the TGI (SW-620 colon)?
The TGI was over 100 µM.

And the TGI (T-47D breast)?
The TGI was over 100 µM.

What about the TGI (TK-10 renal) of the same compound?
The TGI was over 100 µM.

And the TGI (U251 CNS)?
Its TGI is over 100 µM.

And the TGI (UACC-257 melanoma)?
The TGI was over 100 µM.

And the TGI (UACC-62 melanoma)?
The TGI was over 100 µM.

And the TGI (UO-31 renal)?
The TGI was over 100 µM.
